Laboratory results taken from the supplement of paper PMC4862054.

Key:
Conditions in all cases: incubation time: 72 h
Hs578T [1] = assay: normalised viability (% of control), CellTiter-Blue; higher = more viable cells (about 100 = DMSO control)
Outline: (§1)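 Seeded at 20 µl suspension per well onto compound-loaded 384-well plates, breast cancer cell lines were incubated 72 h. CellTiter-Blue fluorescence at 560/590 nm was then read, with each plate normalised to vehicle (100) and a positive kill control (0). Normalised viability is reported at a single listed concentration of the series.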

MDA-MB-453 [2] = assay: as above
Outline: as §1

MFM-223 [3] = assay: as above
Outline: as §1

MDA-MB-436 [4] = assay: as above
Outline: as §1

CAL-148 [5] = assay: as above
Outline: as §1

DU-4475 [6] = assay: as above
Outline: as §1

CAL-120 [7] = assay: as above
Outline: as §1

Hs578T [8] = assay: drug sensitivity score (DSS), CellTiter-Blue viability (DSS (AUC-based score)); higher = stronger viability inhibition; extreme values may be limits of the assay
Procedure: (§2)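 DSRT with the CellTiter-Blue (resazurin reduction) viability readout, fluorescence 560/590 nm, 72 h incubation. Plates were normalised to DMSO and benzethonium chloride controls. DSS is computed from the area under the fitted dose-response curve (5 or 9 concentrations).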

HDQ-P1 = assay: as above
Procedure: as §2

HCC1599 = assay: as above
Procedure: as §2

MDA-MB-453 [9] = assay: as above
Procedure: as §2

CAL-51 = assay: as above
Procedure: as §2

BT-549 = assay: as above
Procedure: as §2

SK-BR-3 = assay: as above
Procedure: as §2

MDA-MB-468 = assay: as above
Procedure: as §2

MDA-MB-231 = assay: as above
Procedure: as §2

MFM-223 [10] = assay: as above
Procedure: as §2

MDA-MB-436 [11] = assay: as above
Procedure: as §2

BT-474 = assay: as above
Procedure: as §2

HCC1143 = assay: as above
Procedure: as §2

CAL-148 [12] = assay: as above
Procedure: as §2

CAL-85-1 = assay: as above
Procedure: as §2

DU-4475 [13] = assay: as above
Procedure: as §2

CAL-120 [14] = assay: as above
Procedure: as §2

HCC1937 = assay: as above
Procedure: as §2

O=C(O)C1(C(=O)O)CCC1.[NH2-].[NH2-].[Pt+2] [Carboplatin]
normalised viability [%]
Conditions	CAL-120 [7]	CAL-148 [5]	DU-4475 [6]	Hs578T [1]	MDA-MB-436 [4]	MDA-MB-453 [2]	MFM-223 [3]
3 nM	–	90	99	–	–	113	–
10 nM	87	–	–	105	80.3	–	86
30 nM	–	96	74.5	–	–	93.3	–
100 nM	–	95.4	89.4	–	–	102	–
1000 nM	95.4	–	–	94.1	95.9	–	98.4
10000 nM	78.3	–	–	109	82.2	–	48.7

Conditions	drug sensitivity score
BT-474	0
BT-549	0
CAL-51	1.03
CAL-85-1	0
CAL-120 [14]	0
CAL-148 [12]	2.02
DU-4475 [13]	0
HCC1143	0
HCC1599	0
HCC1937	0
HDQ-P1	0
Hs578T [8]	0
MDA-MB-231	0
MDA-MB-436 [11]	0
MDA-MB-453 [9]	1.79
MDA-MB-468	0
MFM-223 [10]	1.39
SK-BR-3	0

Oc1ncc(N(CCCl)CCCl)c(O)n1 [Uracil mustard]
normalised viability [%]
Conditions	CAL-120 [7]	CAL-148 [5]	DU-4475 [6]	Hs578T [1]	MDA-MB-436 [4]	MDA-MB-453 [2]	MFM-223 [3]
3 nM	–	85.3	92	–	–	103	–
10 nM	88.3	–	–	106	103	–	99.2
30 nM	–	97.1	89.5	–	–	107	–
100 nM	–	101	101	–	–	101	–
1000 nM	87.5	–	–	100	76.6	–	95.9
10000 nM	82.5	–	–	80.3	97.8	–	99.8

Conditions	drug sensitivity score
BT-474	0
BT-549	0
CAL-51	0
CAL-85-1	0
CAL-120 [14]	0
CAL-148 [12]	0
DU-4475 [13]	0
HCC1143	0
HCC1599	0
HCC1937	3.7
HDQ-P1	0
Hs578T [8]	0
MDA-MB-231	0
MDA-MB-436 [11]	0
MDA-MB-453 [9]	0
MDA-MB-468	0
MFM-223 [10]	0
SK-BR-3	0

COc1cc2c(Oc3ccc4[nH]c(C)cc4c3F)ncnc2cc1OCCCN1CCCC1 [Cediranib]
normalised viability [%]
Conditions	CAL-120 [7]	CAL-148 [5]	DU-4475 [6]	Hs578T [1]	MDA-MB-436 [4]	MDA-MB-453 [2]	MFM-223 [3]
0.3 nM	–	103	103	–	–	85.7	–
1 nM	117	–	–	110	85.6	–	99.9
3 nM	–	92.8	80.4	–	–	97	–
10 nM	–	107	87.3	–	–	84.7	–
100 nM	110	–	–	106	92	–	87
1000 nM	81.4	–	–	92.2	91.8	–	47.2

Conditions	drug sensitivity score
BT-474	0
BT-549	0
CAL-51	0
CAL-85-1	0
CAL-120 [14]	0
CAL-148 [12]	0
DU-4475 [13]	0
HCC1143	0
HCC1599	0
HCC1937	0
HDQ-P1	0
Hs578T [8]	0
MDA-MB-231	0
MDA-MB-436 [11]	0
MDA-MB-453 [9]	0
MDA-MB-468	0
MFM-223 [10]	0
SK-BR-3	0

N#Cc1ccc(C(c2ccc(C#N)cc2)n2cncn2)cc1 [Letrozole]
normalised viability [%]
Conditions	CAL-120 [7]	CAL-148 [5]	DU-4475 [6]	Hs578T [1]	MDA-MB-436 [4]	MDA-MB-453 [2]	MFM-223 [3]
3 nM	–	93.8	94.6	–	–	105	–
10 nM	72.4	–	–	91.8	113	–	58.8
30 nM	–	93	81.4	–	–	76.8	–
100 nM	–	94.8	82	–	–	93.1	–
1000 nM	86.6	–	–	91	96.1	–	70.5
10000 nM	80.2	–	–	98.9	105	–	49.2

Conditions	drug sensitivity score
BT-474	0
BT-549	0
CAL-51	0
CAL-85-1	0
CAL-120 [14]	0
CAL-148 [12]	0
DU-4475 [13]	0
HCC1143	0
HCC1599	3.7
HCC1937	1.74
HDQ-P1	0
Hs578T [8]	0
MDA-MB-231	0
MDA-MB-436 [11]	0
MDA-MB-453 [9]	0
MDA-MB-468	0
MFM-223 [10]	0
SK-BR-3	0

NCCCNCCSP(=O)(O)O [Amifostine]
normalised viability [%]
Conditions	CAL-120 [7]	CAL-148 [5]	DU-4475 [6]	Hs578T [1]	MDA-MB-436 [4]	MDA-MB-453 [2]	MFM-223 [3]
3 nM	–	97.6	85.9	–	–	102	–
10 nM	71.9	–	–	101	135	–	81.8
30 nM	–	93.9	93.9	–	–	81	–
100 nM	–	96.5	86.4	–	–	86.7	–
1000 nM	84.1	–	–	104	91.8	–	82.1
10000 nM	82.1	–	–	95.6	86.2	–	96.4

Conditions	drug sensitivity score
BT-474	0
BT-549	0
CAL-51	0
CAL-85-1	0
CAL-120 [14]	0
CAL-148 [12]	0
DU-4475 [13]	0
HCC1143	0
HCC1599	3.86
HCC1937	0
HDQ-P1	0
Hs578T [8]	0
MDA-MB-231	0
MDA-MB-436 [11]	0
MDA-MB-453 [9]	0
MDA-MB-468	0
MFM-223 [10]	0
SK-BR-3	0
